# Measured values taken from patent US9249132B2, “Substituted bicyclic aromatic compounds as S-nitrosoglutathione reductase inhibitors” (Nivalis Therapeutics, Inc., priority 2010, dated 2016).
# What was measured:
# [1] = tested on: ovalbumin (OVA)-induced asthma; assay: Mouse model of ovalbumin (OVA)-induced asthma, eosinophil infiltrate in BALF; type: in vivo; details: three oral doses of 10 mg/kg at 48 h, 24 h, and 1 h prior to assessment; p<0.05
# Protocol: A mouse model of ovalbumin (OVA)-induced asthma was used to screen GSNOR inhibitors for efficacy against methacholine (MCh)-induced bronchoconstriction/airway hyper-responsiveness. This is a widely used and well characterized model that presents with an acute, allergic asthma phenotype with similarities to human asthma. Efficacy of GSNOR inhibitors was assessed using a protocol in which GSNOR inhibitors were administered after OVA sensitization and airway challenge, and prior to challenge with MCh. Bronchoconstriction in response to challenge with increasing doses of MCh was assessed using whole body plethysmography (Penh; Buxco). The amount of eosinophil infiltrate into the bronchoaveolar lavage fluid (BALF) was also determined as a measure of lung inflammation. […]
# In vivo airway responsiveness to methacholine was measured 24 h after the last OVA challenge in conscious, freely moving, spontaneously breathing mice with whole body plethysmography using a Buxco chamber (Wilmington, N.C.). […] The degree of bronchoconstriction was expressed as enhanced pause (Penh), a calculated dimensionless value, which correlates with the measurement of airway resistance, impedance, and intrapleural pressure in the same mouse. Penh readings were taken and averaged for 4 min. after each nebulization challenge. […]
# [2] = Mouse pharmacokinetic (PK) study; type: in vivo; details: plasma, male BALB/c mice, PO 10 mg/kg, IV 2 mg/kg
# Text: The mouse was used to determine the pharmacokinetics of compounds of the invention. This species is widely used to assess the bioavailability of compounds by administering both oral (PO) and intravenous (IV) test articles. Efficacy of the compounds of the invention was compared by assessing plasma exposure in male BALB/c mice either via IV or PO administration at the times of peak activity.
# Compounds of the invention were reconstituted in a phosphate buffered saline (PBS)/10% Solutol (HS 15) clear solution resulting in a concentration of 0.2 mg/mL and administered to mice (2 mg/kg) as a single IV dose. Animals were dosed via the lateral tail vein. […] The plasma was transferred into labeled polypropylene tubes and frozen at −70° C. until analyzed by LC/MS/MS.
# The compounds of the invention were reconstituted in 40% Propylene Glycol/40% Propylene Carbonate/20% of a 5% Sucrose clear solution resulting in a concentration of 2 mg/mL and administered to mice (10 mg/kg) as a single oral dose via gavage. […] The plasma was transferred into labeled polypropylene tubes and frozen at −70° C. until analyzed by LC/MS/MS.
# Plasma samples at each timepoint were analyzed using a LC-MS/MS with a lower limit of quantification (LLOQ) of 1 ng/mL. […]
# In addition to the above PK parameters, bioavailability (% F) was calculated.
smiles,measurement,setting,value
"O=C(O)c1ccc(-c2ccc3cc(O)ccc3c2)c(Cl)c1 [Example 1, 3-chloro-4-(6-hydroxynaphthalen-2-yl)benzoic acid]","decrease of eosinophil infiltration in BAL, of vehicle control",[1],44%
same,bioavailability,[2],> 40%
